Experimental data from patent publication US20220081412A1, “QUINOLINYL-PYRAZINE-CARBOXAMIDE COMPOUNDS AND USES THEREOF” (The Regents of the University of Michigan, priority 2018, published 2022).
Like-named read-outs stand apart in the source and are kept apart here.

Tested on: MIA PaCa-2 cells
Test: Bru-seq analysis for nascent RNA synthesis (log2FC of genes, GSEA gene sets)
Assay type: cell-based, human
[1] = ACEVEDO_LIVER_CANCER_WITH_H3K27ME3_UP, C2, downregulated, 4 h
[2] = ACTWSNACTNY_UNKNOWN, TFBT, upregulated, 4 h
[3] = AP1_Q4_01, TFBT, upregulated, 4 h
[4] = BACH1_01, TFBT, upregulated, 4 h
[5] = BACH2_01, TFBT, upregulated, 4 h
[6] = BEGUM_TARGETS_OF_PAX3_FOXO1_FUSION_UP, C2, downregulated, 4 h
[7] = CCCNNNNNNAAGWT_UNKNOWN, TFBT, upregulated, 4 h
[8] = DACOSTA_UV_RESPONSE_VIA_ERCC3_COMMON_DN, C2, downregulated, 4 h
[9] = DACOSTA_UV_RESPONSE_VIA_ERCC3_XPCS_DN, C2, downregulated, 4 h
[10] = DAZARD_UV_RESPONSE_CLUSTER_G6, C2, downregulated, 4 h
[11] = DE_YY1_TARGETS_DN, C2, downregulated, 4 h
[12] = DOANE_BREAST_CANCER_CLASSES_DN, C2, downregulated, 4 h
[13] = EVI1_05, TFBT, upregulated, 4 h
[14] = GABRIELY_MIR21_TARGETS, C2, downregulated, 4 h
[15] = GATGKMRGCG_UNKNOWN, TFBT, upregulated, 4 h
[16] = GCCNNNWTAAR_UNKNOWN, TFBT, upregulated, 4 h
[17] = GGAANCGGAANY_UNKNOWN, TFBT, upregulated, 4 h
[18] = GGCNRNWCTTYS_UNKNOWN, TFBT, upregulated, 4 h
[19] = GGGYGTGNY_UNKNOWN, TFBT, upregulated, 4 h
[20] = GO_ALCOHOL_BIOSYNTHETIC_PROCESS, upregulated, 4 h
[21] = GO_ALCOHOL_METABOLIC_PROCESS, upregulated, 4 h
[22] = GO_CELLULAR_RESPONSE_TO_TOPOLOGICALLY_INCORRECT_PROTEIN, upregulated, 4 h
[23] = GO_CHROMATIN_ASSEMBLY_OR_DISASSEMBLY, upregulated, 4 h
[24] = GO_CHROMATIN_SILENCING_AT_RDNA, upregulated, 4 h
[25] = GO_CYTOSOLIC_LARGE_RIBOSOMAL_SUBUNIT, upregulated, 4 h
[26] = GO_CYTOSOLIC_RIBOSOME, upregulated, 4 h
[27] = GO_DNA_PACKAGING, upregulated, 4 h
[28] = GO_DNA_PACKAGING_COMPLEX, upregulated, 4 h
[29] = GO_HEXOSE_METABOLIC_PROCESS, upregulated, 4 h
[30] = GO_INTRINSIC_COMPONENT_OF_ENDOPLASMIC_RETICULUM_MEMBRANE, upregulated, 4 h
[31] = GO_IRE1_MEDIATED_UNFOLDED_PROTEIN_RESPONSE, upregulated, 4 h
[32] = GO_NEGATIVE_REGULATION_OF_RESPONSE_TO_OXIDATIVE_STRESS, upregulated, 4 h

Cc1cc(NC(=O)c2cnc(N3CCNCC3)cn2)c2ncccc2c1 [J28, N-(6-methylquinolin-8-yl)-5-(piperazin-1-yl)pyrazine-2-carboxamide]
ES: 0.474
KEGG gene sets SYSTEMIC_LUPUS_ERYTHEMATOSUS and LYSOSOME: upregulation
NES: 1.626
cholesterol biosynthesis pathway (curated gene sets): enrichment
expression of genes like INSIG1, DHCR7, MVK and FASN: Overexpression
synthesis of PCYT2, DOLK and HIST1H3B RNAs: upregulated in a dose-dependent manner
expression of ZNF816, IFT80, CACNG8 and GPR135 (4 h): significant decrease
Cell Cycle, Mitotic pathway (4 h of treatment): upregulated
log2FC (AC005614.2, downregulated noncoding gene, 4 h): −1.01
log2FC (AC005726.2, downregulated protein-coding gene, 4 h): −0.99
log2FC (AC006141.1, downregulated noncoding gene, 4 h): −1.18
log2FC (AC007038.2, downregulated noncoding gene, 4 h): −1.08
log2FC (AC007099.1, downregulated noncoding gene, 4 h): −1.04
log2FC (AC007390.2, downregulated noncoding gene, 4 h): −1.54
log2FC (AC007619.1, downregulated noncoding gene, 4 h): −1.30
log2FC (AC009690.1, downregulated protein-coding gene, 4 h): −0.83
log2FC (AC016949.1, downregulated noncoding gene, 4 h): −1.18
log2FC (AC022335.1, downregulated protein-coding gene, 4 h): −0.86
log2FC (AC022415.1, downregulated noncoding gene, 4 h): −1.20
log2FC (AC040934.1, downregulated noncoding gene, 4 h): −0.97
log2FC (AC046130.2, downregulated noncoding gene, 4 h): −1.16
log2FC (AC091152.2, downregulated noncoding gene, 4 h): −1.18
log2FC (AC135983.2, downregulated noncoding gene, 4 h): −1.16
log2FC (AC244131.2, downregulated noncoding gene, 4 h): −1.22
ES [1]: −0.444
NES [1]: −1.897
ES [2]: 0.432
NES [2]: 1.640
log2FC (ADNP-AS1, downregulated noncoding gene, 4 h): −1.07
log2FC (AKAP5, downregulated protein-coding gene, 4 h): −0.90
log2FC (AL596247.1, downregulated noncoding gene, 4 h): −2.37
ES [3]: 0.371
NES [3]: 1.550
log2FC (AP001992.1, downregulated noncoding gene, 4 h): −1.36
ES [4]: 0.419
NES [4]: 1.762
ES [5]: 0.390
NES [5]: 1.654
ES [6]: −0.621
NES [6]: −2.034
log2FC (CACNG8, downregulated protein-coding gene, 4 h): −1.10
ES [7]: 0.409
NES [7]: 1.550
log2FC (CCDC190, downregulated protein-coding gene, 4 h): −0.91
log2FC (CD274, downregulated protein-coding gene, 4 h): −0.90
log2FC (CHML, downregulated protein-coding gene, 4 h): −0.94
log2FC (CLEC2D, downregulated protein-coding gene, 4 h): −0.84
ES [8]: −0.448
NES [8]: −2.492
ES [9]: −0.520
NES [9]: −2.258
ES [10]: −0.434
NES [10]: −2.065
ES [11]: −0.471
NES [11]: −2.072
ES [12]: −0.562
NES [12]: −1.907
ES [13]: 0.421
NES [13]: 1.596
log2FC (FERMT1, downregulated protein-coding gene, 4 h): −0.88
log2FC (FP671120.1, downregulated noncoding gene, 4 h): −2.35
ES [14]: −0.470
NES [14]: −2.457
ES [15]: 0.462
NES [15]: 1.697
ES [16]: 0.442
NES [16]: 1.702
log2FC (GCLM, downregulated protein-coding gene, 4 h): −0.85
log2FC (GCNA, downregulated protein-coding gene, 4 h): −0.89
ES [17]: 0.421
NES [17]: 1.695
ES [18]: 0.424
NES [18]: 1.583
ES [19]: 0.361
NES [19]: 1.708
ES [20]: 0.573
NES [20]: 2.162
ES [21]: 0.457
NES [21]: 2.022
ES [22]: 0.504
NES [22]: 2.013
ES [23]: 0.470
NES [23]: 1.952
ES [24]: 0.713
NES [24]: 2.078
ES [25]: 0.536
NES [25]: 1.982
ES [26]: 0.516
NES [26]: 2.082
ES [27]: 0.468
NES [27]: 1.976
ES [28]: 0.727
NES [28]: 2.600
ES [29]: 0.500
NES [29]: 1.992
ES [30]: 0.508
NES [30]: 2.000
ES [31]: 0.556
NES [31]: 2.001
ES [32]: 0.743
NES [32]: 2.162
